Source: patent US20260055097A9, “NRF2 PROTEIN DEGRADERS” (Ganymede Oncology, Inc., priority 2022, published 2026)
Where two headings read alike, the source gives them in different places.

How the values were obtained:
A549 = experiment: Cancer cell viability, A549 (CellTiter-Glo); format: cell-based; details: Homo sapiens, 72 h, A549 cells, 3 days, read-out: Cellular IC50 (μM) A549
Method: Representative Compounds of the Disclosure were tested in A549 (Vendor: ATCC; Cat #CCL-185; Description: lung, carcinoma) and/or LK-2 (Vendor: Riken; Cat #RCB1970; Description: lung, squamous cell carcinoma) cellular viability assays according to the following general protocol. • 1. Observed the cells under microscope. • 2. Aspirated the media and added 5 mL trypsin and incubate for 3 mins. • 3. Added 10 mL fresh media and harvested all the cells in to 15 mL tubes. • 4. Centrifuged the cells at 1000 rpm for 5 mins. • 5. Re-suspended the cells with 11 mL media and took 1 mL to determine the cell number and viability. • 6. Prepared cells suspension at 20 K/mL (A549) or 35 K/mL (LK-2) • 7. Seeded the cells into 96-well plate and incubated for overnight. • 8. […] After 3 days, took out the plates from the incubator and observed the cells under microscope. • 10. Passed a film at the bottom of the plates. • 11. Equilibrated the plate and its contents at room temperature for approximately 30 minutes. • 12. Thawed the CellTiter-Glo® Buffer and equilibrated to room temperature prior to use. • 13. Equilibrated the lyophilized CellTiter-Glo® Substrate to room temperature prior to use. • 14. Transferred 100 ml of CellTiter-Glo® Buffer into the amber bottle containing CellTiter-Glo® Substrate to reconstituted the lyophilized enzyme/substrate mixture. • 15. Mixed by gently vortexing, swirling or inverting the contents to obtain a homogeneous solution. • 16. Added 100 μL CellTiter-Glo® Reagent into each well • 17. Mixed contents for 15 minutes on an orbital shaker to induce cell lysis. • 18. Recorded luminescence with EnSpire machine. • 19. Passed the raw data into the file and analyzed the data with XLfit software.

Nrf2 = molecular target: T1, Nrf2 (Homo sapiens, UniProt Q16236); experiment: Nrf2 degradation in A549 HiBiT-Nrf2 cells, Nano-Glo HiBiT lytic detection (HiBiT readout); format: cell-based; set-up: host or cells: A549 HiBiT-Nrf2 cells (engineered line bought from Promega)
T1 sequence (Q16236 1-605): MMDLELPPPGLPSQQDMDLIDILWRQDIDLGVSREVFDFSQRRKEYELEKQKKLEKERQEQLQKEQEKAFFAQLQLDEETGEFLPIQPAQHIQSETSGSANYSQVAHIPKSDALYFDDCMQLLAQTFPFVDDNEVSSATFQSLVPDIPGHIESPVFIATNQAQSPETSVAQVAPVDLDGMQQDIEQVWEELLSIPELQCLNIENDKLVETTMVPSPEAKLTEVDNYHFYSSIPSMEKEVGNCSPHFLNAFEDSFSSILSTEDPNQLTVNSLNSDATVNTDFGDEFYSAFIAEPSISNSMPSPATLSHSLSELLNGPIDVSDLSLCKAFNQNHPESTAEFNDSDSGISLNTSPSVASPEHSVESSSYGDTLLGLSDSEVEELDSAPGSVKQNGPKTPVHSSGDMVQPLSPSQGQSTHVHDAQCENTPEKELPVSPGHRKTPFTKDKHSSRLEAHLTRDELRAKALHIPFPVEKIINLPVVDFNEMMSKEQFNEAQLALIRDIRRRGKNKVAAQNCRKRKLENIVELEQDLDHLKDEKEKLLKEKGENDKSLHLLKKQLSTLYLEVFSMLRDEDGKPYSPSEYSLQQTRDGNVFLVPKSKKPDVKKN
Method: A549 HiBiT-Nrf2 cells (Promega, Cat. No. CS3023219) were seeded into 384-well plates at cell density of 5,000 cells/well in 40 μL of cell culture medium (Ham's F-12 Nutrient Mix supplemented with 10% FBS and 1% antibiotic-antimycotic).
The next day, cells were treated with representative Compounds of the Disclosure and incubated for 6 h and 20 h at 37° C., 5% CO2. Staurosporine was used as a control.
At the end of incubation Nrf2 degradation (HiBiT readout) and cell viability (CellTiter-Glo readout) were determined. For HiBiT readout, Nano-Glo HiBiT Reagent mix (Promega, Cat. No. N3050) was added to wells, plates were incubated 2 min on an orbital shaker and incubated at room temperature in the dark for additional 30 minutes. At the end of incubation luminescence was measured using ultrasensitive luminescence mode (Envision, Perkin Elmer).

[1] = 6 h, read-out: DC50 (nM) at 6 h
[2] = 20 h, read-out: DC50 (nM) at 20 h

| SMILES | IC50 (A549) [µM] | DC50 (Nrf2; [1]) [nM] | DC50 (Nrf2; [2]) [nM] |
| --- | --- | --- | --- |
| Cc1sc(NC(=O)Cc2cccc(OCCCCNc3cccc4c3C(=O)N(C3CCC(=O)NC3=O)C4=O)c2)nc1-c1ccc2c(c1)CCN2C(=O)C1CC1 (centres unmarked) [Cpd. No. 65, N-(4-(1-(cyclopropanecarbonyl)indolin-5-yl)-5-methylthiazol-2-yl)-2-(3-(4-((2-(2,6-dioxopiperidin-3-yl)-1,3-dioxoisoindolin-4-yl)amino)butoxy)phenyl)acetamide] | 0.12 | < 300 | < 300 |
| Cc1sc(NC(=O)Cc2cccc(OCCN(C)CCNc3cccc4c3C(=O)N(C3CCC(=O)NC3=O)C4=O)c2)nc1-c1ccc2c(c1)CCN2C(=O)C1CC1 (centres unmarked) [Cpd. No. 44, N-(4-(1-(cyclopropanecarbonyl)indolin-5-yl)-5-methylthiazol-2-yl)-2-(3-(2-((2-((2-(2,6-dioxopiperidin-3-yl)-1,3-dioxoisoindolin-4-yl)amino)ethyl)(methyl)amino)ethoxy)phenyl)acetamide] |  | < 300 | < 300 |
| Cc1sc(NC(=O)Cc2cccc(OCCCCCCCCNc3cccc4c3C(=O)N(C3CCC(=O)NC3=O)C4=O)c2)nc1-c1ccc2c(c1)CCN2C(=O)C1CC1 (centres unmarked) [Cpd. No. 72, N-(4-(1-(cyclopropanecarbonyl)indolin-5-yl)-5-methylthiazol-2-yl)-2-(3-((8-((2-(2,6-dioxopiperidin-3-yl)-1,3-dioxoisoindolin-4-yl)amino)octyl)oxy)phenyl)acetamide] | 0.23 |  | > 3000 |
| Cc1sc(NC(=O)Cc2cccc(OCCOCCNc3cccc4c3C(=O)N(C3CCC(=O)NC3=O)C4)c2)nc1-c1ccc2c(c1)CCN2C(=O)C1CC1 (centres unmarked) [Cpd. No. 81, N-(4-(1-(cyclopropanecarbonyl)indolin-5-yl)-5-methylthiazol-2-yl)-2-(3-(2-(2-((2-(2,6-dioxopiperidin-3-yl)-3-oxoisoindolin-4-yl)amino)ethoxy)ethoxy)phenyl) acetamide] | > 30 |  |  |
| Cc1cnccc1C(=O)N1CCc2cc(-c3nc(NC(=O)Cc4cccc(OCCCCCNc5cccc6c5C(=O)N(C5CCC(=O)NC5=O)C6=O)c4)sc3C)ccc21 (centres unmarked) [compound 84, 2-(3-((5-((2-(2,6-dioxopiperidin-3-yl)-1,3-dioxoisoindolin-4-yl)amino)pentyl)oxy)phenyl)-N-(5-methyl-4-(1-(3-methylisonicotinoyl)indolin-5-yl)thiazol-2-yl)acetamide] | 0.046 |  |  |
| Cc1sc(NC(=O)Cc2cccc(OCCC(C)(C)CCNc3ccc4c(c3)C(=O)N(C3CCC(=O)NC3=O)C4=O)c2)nc1-c1ccc2c(c1)CCN2C(=O)C1CC1 (centres unmarked) [Cpd. No. 51, N-(4-(1-(cyclopropanecarbonyl)indolin-5-yl)-5-methylthiazol-2-yl)-2-(3-((5-((2-(2,6-dioxopiperidin-3-yl)-1,3-dioxoisoindolin-5-yl)amino)-3,3-dimethylpentyl)oxy)phenyl)acetamide] |  | < 300 | < 300 |
| Cc1cccnc1C(=O)N1CCc2cc(-c3nc(NC(=O)Cc4cccc(OCCOCCNc5cccc6c5C(=O)N(C5CCC(=O)NC5=O)C6=O)c4)sc3C)ccc21 (centres unmarked) [Cpd. No. 79, 2-(3-(2-(2-((2-(2,6-dioxopiperidin-3-yl)-1,3-dioxoisoindolin-4-yl)amino)ethoxy)ethoxy)phenyl)-N-(5-methyl-4-(1-(3-methylpicolinoyl)indolin-5-yl)thiazol-2-yl)acetamide] | 0.043 | > 3000 | < 300 |
| Cc1sc(NC(=O)Cc2cccc(OCCC(C)CCNc3cccc4c3C(=O)N(C3CCC(=O)NC3=O)C4=O)c2)nc1-c1ccc2c(c1)CCN2C(=O)C1CC1 (centres unmarked) [Cpd. No. 41, N-(4-(1-(cyclopropanecarbonyl)indolin-5-yl)-5-methylthiazol-2-yl)-2-(3-((5-((2-(2,6-dioxopiperidin-3-yl)-1,3-dioxoisoindolin-4-yl)amino)-3-methylpentyl)oxy)phenyl)acetamide] |  | < 300 | < 300 |
| Cc1ccncc1C(=O)N1CCc2cc(-c3nc(NC(=O)Cc4cccc(OCCCCCNc5cccc6c5C(=O)N(C5CCC(=O)NC5=O)C6=O)c4)sc3C)ccc21 (centres unmarked) [compound 85, 2-(3-((5-((2-(2,6-dioxopiperidin-3-yl)-1,3-dioxoisoindolin-4-yl)amino)pentyl)oxy)phenyl)-N-(5-methyl-4-(1-(4-methylnicotinoyl)indolin-5-yl)thiazol-2-yl)acetamide] | 0.047 |  |  |
| Cc1sc(NC(=O)Cc2cccc(OCCC(C)(C)CCNc3cccc4c3C(=O)N(C3CCC(=O)NC3=O)C4=O)c2)nc1-c1ccc2c(c1)CCN2C(=O)C1CC1 (centres unmarked) [Cpd. No. 42, N-(4-(1-(cyclopropanecarbonyl)indolin-5-yl)-5-methylthiazol-2-yl)-2-(3-((5-((2-(2,6-dioxopiperidin-3-yl)-1,3-dioxoisoindolin-4-yl)amino)-3,3-dimethylpentyl)oxy)phenyl)acetamide] |  | > 3000 |  |
| Cc1sc(NC(=O)Cc2cccc(OCCC(C)CCOc3cccc4c3C(=O)N(C3CCC(=O)NC3=O)C4=O)c2)nc1-c1ccc2c(c1)CCN2C(=O)C1CC1 (centres unmarked) [Cpd. No. 47, N-(4-(1-(cyclopropanecarbonyl)indolin-5-yl)-5-methylthiazol-2-yl)-2-(3-((5-((2-(2,6-dioxopiperidin-3-yl)-1,3-dioxoisoindolin-4-yl)oxy)-3-methylpentyl)oxy)phenyl)acetamide] |  | 300 to 3000 | 300 to 3000 |
| Cc1cccnc1C(=O)N1CCc2cc(-c3nc(NC(=O)Cc4cccc(OCCCCCNc5cccc6c5C(=O)N(C5CCC(=O)NC5=O)C6=O)c4)sc3C)ccc21 (centres unmarked) [compound 86, 2-(3-((5-((2-(2,6-dioxopiperidin-3-yl)-1,3-dioxoisoindolin-4-yl)amino)pentyl)oxy)phenyl)-N-(5-methyl-4-(1-(3-methylpicolinoyl)indolin-5-yl)thiazol-2-yl)acetamide] | 0.072 |  |  |
| Cc1ncccc1C(=O)N1CCc2cc(-c3nc(NC(=O)Cc4cccc(OCCCCCNc5cccc6c5C(=O)N(C5CCC(=O)NC5=O)C6=O)c4)sc3C)ccc21 (centres unmarked) [compound 83, 2-(3-((5-((2-(2,6-dioxopiperidin-3-yl)-1,3-dioxoisoindolin-4-yl)amino)pentyl)oxy)phenyl)-N-(5-methyl-4-(1-(2-methylnicotinoyl)indolin-5-yl)thiazol-2-yl)acetamide] | 0.045 |  |  |
| Cc1sc(NC(=O)Cc2cccc(OCCC(C)CCNc3ccc4c(c3)C(=O)N(C3CCC(=O)NC3=O)C4=O)c2)nc1-c1ccc2c(c1)CCN2C(=O)C1CC1 (centres unmarked) [compound 50, N-(4-(1-(cyclopropanecarbonyl)indolin-5-yl)-5-methylthiazol-2-yl)-2-(3-((5-((2-(2,6-dioxopiperidin-3-yl)-1,3-dioxoisoindolin-5-yl)amino)-3-methylpentyl)oxy)phenyl)acetamide] |  | 300 to 3000 | 300 to 3000 |
| Cc1sc(NC(=O)Cc2cccc(OCCC(C)(C)CCOc3cccc4c3C(=O)N(C3CCC(=O)NC3=O)C4=O)c2)nc1-c1ccc2c(c1)CCN2C(=O)C1CC1 (centres unmarked) [Cpd. No. 48, N-(4-(1-(cyclopropanecarbonyl)indolin-5-yl)-5-methylthiazol-2-yl)-2-(3-((5-((2-(2,6-dioxopiperidin-3-yl)-1,3-dioxoisoindolin-4-yl)oxy)-3,3-dimethylpentyl)oxy)phenyl)acetamide] |  | > 3000 | 300 to 3000 |
